{"source": "ChEMBL document CHEMBL1144692", "about": "“Alkaloids from stems and leaves of Stemona japonica and their insecticidal activities” (J Nat Prod, 2008)", "key": {"[1]": {"target": "T1, Nicotinic acetylcholine receptor alpha1 subunit (Heliothis virescens) (UniProt O46128)", "T1 sequence (whole entry)": "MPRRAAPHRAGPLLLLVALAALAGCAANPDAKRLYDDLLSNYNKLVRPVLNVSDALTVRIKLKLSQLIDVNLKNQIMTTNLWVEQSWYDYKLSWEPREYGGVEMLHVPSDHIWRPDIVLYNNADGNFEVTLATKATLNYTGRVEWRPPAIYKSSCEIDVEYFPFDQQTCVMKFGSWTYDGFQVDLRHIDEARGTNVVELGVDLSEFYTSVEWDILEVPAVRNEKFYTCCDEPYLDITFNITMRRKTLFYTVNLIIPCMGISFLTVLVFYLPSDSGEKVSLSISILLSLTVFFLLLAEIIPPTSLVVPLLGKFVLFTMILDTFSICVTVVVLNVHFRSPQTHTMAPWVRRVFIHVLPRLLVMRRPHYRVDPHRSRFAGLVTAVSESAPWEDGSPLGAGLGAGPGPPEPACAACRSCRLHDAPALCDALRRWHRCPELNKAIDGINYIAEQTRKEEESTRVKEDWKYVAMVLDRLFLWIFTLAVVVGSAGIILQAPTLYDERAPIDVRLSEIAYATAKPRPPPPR", "experiment": "Antagonist activity at nAChR in Heliothis virescens neuronal cells assessed as blockade of acetylcholine-induced response at 10 uM by voltage clamp technique", "assay_type": "functional, cell-based", "parameters": "scale not given: the % may be the effect or the level left"}, "Spodoptera frugiperda [2]": {"system": "Spodoptera frugiperda", "experiment": "Insecticidal activity against Spodoptera frugiperda at 500 g/ha", "assay_type": "functional, organism-based"}, "[3]": {"target": "T2, Nicotinic acetylcholine receptor alpha1 subunit (Heliothis virescens, UniProt O46128)", "T2 sequence (O46128 whole entry)": "T1 sequence (whole entry)", "experiment": "Agonist activity at nAChR in Heliothis virescens neuronal cells by voltage clamp technique", "assay_type": "functional, cell-based"}, "Myzus persicae [4]": {"system": "Myzus persicae", "experiment": "Insecticidal activity against Myzus persicae at 500 g/ha", "assay_type": "functional, organism-based"}, "[5]": {"target": "T2, Nicotinic acetylcholine receptor alpha1 subunit", "experiment": "Antagonist activity at nAChR in Heliothis virescens neuronal cells by voltage clamp technique", "assay_type": "functional, cell-based"}, "Spodoptera frugiperda [6]": {"system": "Spodoptera frugiperda", "experiment": "Insecticidal activity against Spodoptera frugiperda at 4 to 500 g/ha", "assay_type": "functional, organism-based"}, "Myzus persicae [7]": {"system": "Myzus persicae", "experiment": "Insecticidal activity against Myzus persicae at 4 to 500 g/ha", "assay_type": "functional, organism-based"}}, "note": "The source made the active and inactive calls. The calls are words filed in the database; no cut-off is given here.", "data": [{"molecule": "CC1=C[C@H]([C@H]2O[C@@H]3CCCN4[C@@H](CC[C@H]4[C@@H]4C[C@H](C)C(=O)O4)[C@H]3[C@@H]2C)OC1=O", "note": "(relative stereo)", "values": [{"measurement": "Activity", "setting": "[1]", "result": 90, "unit": "%"}]}, {"molecule": "CCCC[C@]12[C@H]3C[C@H]4[C@H]5[C@H](C)C(C6OC(=O)C(C)=C6OC)O[C@]5(O3)[C@@H]1[C@H](O)CN42", "note": "(stereo partly drawn) [6beta-hydroxystemofoline]", "values": [{"measurement": "Activity", "setting": "Spodoptera frugiperda [2]", "result": "inactive"}, {"measurement": "EC50", "setting": "[3]", "result": 157, "unit": "nM"}, {"measurement": "Activity", "setting": "Myzus persicae [4]", "result": "inactive"}]}, {"molecule": "CCCC[C@]12[C@@H]3C[C@H]4[C@H]5[C@H](C)C(C6OC(=O)C(CO)=C6OC)O[C@]5(O3)[C@@H]1CCN42", "note": "(some centres undefined) [16-hydroxystemofoline]", "values": [{"measurement": "EC50", "setting": "[3]", "result": 12, "unit": "nM"}]}, {"molecule": "COC1=C(C)C(=O)O/C1=C(\\O)[C@@H](C)[C@H]1[C@@H](O)CCCN2[C@H]1CC[C@H]2[C@@H]1C[C@H](C)C(=O)O1", "note": "[PROTOSTEMODIOL]", "values": [{"measurement": "IC50", "setting": "[5]", "result": 10000, "unit": "nM"}]}, {"molecule": "CCCC[C@@]12C3CCN1[C@H]1C[C@H]2O[C@@]32O/C(=C3\\OC(=O)C(C)=C3OC)[C@@H](C)[C@H]12", "note": "[STEMOFOLINE]", "values": [{"measurement": "Activity", "setting": "Spodoptera frugiperda [6]", "result": "Active"}, {"measurement": "Activity", "setting": "Myzus persicae [7]", "result": "Active"}, {"measurement": "EC50", "setting": "[3]", "result": 50, "unit": "nM"}]}]}
